Reference: the supplement of paper PMC10307832

Legend:
Assay in all cases: relative viability (nuclei count vs DMSO), 5 days (fraction); higher = more cells survive
[1] = system: NCI-H1944
Method in brief: (§1)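 Dosing by pin tool came one day after lung cancer cell lines were seeded in 1536-well plates, using either one drug or a fixed anchor-drug dose plus five library-drug doses (not always all listed) in √10 steps. After 5 days, nuclei were counted on 4× images. Relative viability is treated-well nuclei count divided by vehicle-well nuclei count, and values are medians of duplicate plates.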

[2] = system: NCI-H661
Method in brief: as §1

[3] = system: NCI-H441
Method in brief: as §1

[4] = system: LCLC-103H
Method in brief: as §1

[5] = system: NCI-H1355
Method in brief: as §1

[6] = system: LXF-289
Method in brief: as §1

[7] = system: NCI-H1993
Method in brief: as §1

[8] = system: ChaGo-K-1
Method in brief: as §1

[9] = system: LK-2
Method in brief: as §1

[10] = system: NCI-H727
Method in brief: as §1

[11] = system: NCI-H647
Method in brief: as §1

[12] = system: HCC-827
Method in brief: as §1

[13] = system: NCI-H2170
Method in brief: as §1

[14] = system: RERF-LC-KJ
Method in brief: as §1

[15] = system: SK-MES-1
Method in brief: as §1

[16] = system: BEN
Method in brief: as §1

[17] = system: NCI-H1666
Method in brief: as §1

[18] = system: HOP-62
Method in brief: as §1

[19] = system: EKVX
Method in brief: as §1

[20] = system: LOU-NH91
Method in brief: as §1

[21] = system: NCI-H1437
Method in brief: as §1

[22] = system: NCI-H2126
Method in brief: as §1

[23] = system: PC-14
Method in brief: as §1

`Cc1cn(-c2cc(NC(=O)c3ccc(C)c(Nc4nccc(-c5cccnc5)n4)c3)cc(C(F)(F)F)c2)cn1` [Nilotinib] + Nc1ncn([C@H]2C[C@H](O)[C@@H](CO)O2)c(=O)n1 [Decitabine] (partner 2 µM) was tested, and the relative viability ([1]; first compound 0.001 µM) was 0.445, the relative viability ([1]; first compound 0.003162 µM) was 0.505 and the relative viability ([1]; first compound 0.01 µM) was 0.512. The relative viability ([1]; first compound 0.03162 µM) was 0.591, the relative viability ([1]; first compound 0.1 µM) was 0.537 and the relative viability ([2]; first compound 0.001 µM) was 0.554. It also gave a relative viability ([2]; first compound 0.003162 µM) of 0.56, a relative viability ([2]; first compound 0.01 µM) of 0.644 and a relative viability ([2]; first compound 0.03162 µM) of 0.469. For the same compound, the relative viability ([2]; first compound 0.1 µM) was 0.546, the relative viability ([3]; first compound 0.001 µM) was 0.295 and the relative viability ([3]; first compound 0.003162 µM) was 0.304. The relative viability ([3]; first compound 0.01 µM) was 0.284, the relative viability ([3]; first compound 0.03162 µM) was 0.367 and the relative viability ([3]; first compound 0.1 µM) was 0.365. It also gave a relative viability ([4]; first compound 0.001 µM) of 0.77, a relative viability ([4]; first compound 0.003162 µM) of 0.883 and a relative viability ([4]; first compound 0.01 µM) of 0.815. It also gave a relative viability ([4]; first compound 0.03162 µM) of 0.744, a relative viability ([4]; first compound 0.1 µM) of 0.721 and a relative viability ([5]; first compound 0.001 µM) of 0.355. For the same compound, the relative viability ([5]; first compound 0.003162 µM) was 0.381, the relative viability ([5]; first compound 0.01 µM) was 0.382 and the relative viability ([5]; first compound 0.03162 µM) was 0.408. The relative viability ([5]; first compound 0.1 µM) was 0.418, the relative viability ([6]; first compound 0.001 µM) was 0.363 and the relative viability ([6]; first compound 0.003162 µM) was 0.447. It also gave a relative viability ([6]; first compound 0.01 µM) of 0.391, a relative viability ([6]; first compound 0.03162 µM) of 0.551 and a relative viability ([6]; first compound 0.1 µM) of 0.61. It also gave a relative viability ([7]; first compound 0.001 µM) of 0.496, a relative viability ([7]; first compound 0.003162 µM) of 0.694 and a relative viability ([7]; first compound 0.01 µM) of 0.658. For the same compound, the relative viability ([7]; first compound 0.03162 µM) was 0.517, the relative viability ([7]; first compound 0.1 µM) was 0.62 and the relative viability ([8]; first compound 0.001 µM) was 0.528. The relative viability ([8]; first compound 0.003162 µM) was 0.584, the relative viability ([8]; first compound 0.01 µM) was 0.585 and the relative viability ([8]; first compound 0.03162 µM) was 0.519. For the same compound, the relative viability ([8]; first compound 0.1 µM) was 0.577, the relative viability ([9]; first compound 0.001 µM) was 0.327 and the relative viability ([9]; first compound 0.003162 µM) was 0.338. For the same compound, the relative viability ([9]; first compound 0.01 µM) was 0.252, the relative viability ([9]; first compound 0.03162 µM) was 0.236 and the relative viability ([9]; first compound 0.1 µM) was 0.26. For the same compound, the relative viability ([10]; first compound 0.001 µM) was 0.67, the relative viability ([10]; first compound 0.003162 µM) was 0.818 and the relative viability ([10]; first compound 0.01 µM) was 0.825. It also gave a relative viability ([10]; first compound 0.03162 µM) of 0.715, a relative viability ([10]; first compound 0.1 µM) of 0.606 and a relative viability ([11]; first compound 0.001 µM) of 0.396. For the same compound, the relative viability ([11]; first compound 0.003162 µM) was 0.446, the relative viability ([11]; first compound 0.01 µM) was 0.573 and the relative viability ([11]; first compound 0.03162 µM) was 0.448. For the same compound, the relative viability ([11]; first compound 0.1 µM) was 0.528, the relative viability ([12]; first compound 0.001 µM) was 0.303 and the relative viability ([12]; first compound 0.003162 µM) was 0.41. It also gave a relative viability ([12]; first compound 0.03162 µM) of 0.296, a relative viability ([12]; first compound 0.1 µM) of 0.328 and a relative viability ([13]; first compound 0.001 µM) of 0.488. It also gave a relative viability ([13]; first compound 0.003162 µM) of 0.553, a relative viability ([13]; first compound 0.01 µM) of 0.539 and a relative viability ([13]; first compound 0.03162 µM) of 0.56. It also gave a relative viability ([13]; first compound 0.1 µM) of 0.649, a relative viability ([14]; first compound 0.001 µM) of 0.732 and a relative viability ([14]; first compound 0.003162 µM) of 0.796. For the same compound, the relative viability ([14]; first compound 0.01 µM) was 0.771, the relative viability ([14]; first compound 0.03162 µM) was 0.653 and the relative viability ([14]; first compound 0.1 µM) was 0.449. It also gave a relative viability ([15]; first compound 0.001 µM) of 0.409, a relative viability ([15]; first compound 0.003162 µM) of 0.487 and a relative viability ([15]; first compound 0.01 µM) of 0.575. For the same compound, the relative viability ([15]; first compound 0.03162 µM) was 0.617, the relative viability ([15]; first compound 0.1 µM) was 0.46 and the relative viability ([16]; first compound 0.001 µM) was 0.787. It also gave a relative viability ([16]; first compound 0.003162 µM) of 0.727, a relative viability ([16]; first compound 0.01 µM) of 0.622 and a relative viability ([16]; first compound 0.03162 µM) of 0.801. The relative viability ([16]; first compound 0.1 µM) was 0.516, the relative viability ([17]; first compound 0.001 µM) was 0.698 and the relative viability ([17]; first compound 0.01 µM) was 0.697. The relative viability ([17]; first compound 0.03162 µM) was 0.606, the relative viability ([17]; first compound 0.1 µM) was 0.613 and the relative viability ([18]; first compound 0.003162 µM) was 0.276. The relative viability ([18]; first compound 0.03162 µM) was 0.464, the relative viability ([19]; first compound 0.001 µM) was 0.307 and the relative viability ([19]; first compound 0.003162 µM) was 0.413. For the same compound, the relative viability ([19]; first compound 0.01 µM) was 0.394, the relative viability ([19]; first compound 0.03162 µM) was 0.305 and the relative viability ([19]; first compound 0.1 µM) was 0.648. The relative viability ([20]; first compound 0.001 µM) was 0.776, the relative viability ([20]; first compound 0.003162 µM) was 0.864 and the relative viability ([20]; first compound 0.01 µM) was 0.889. It also gave a relative viability ([20]; first compound 0.03162 µM) of 0.898, a relative viability ([20]; first compound 0.1 µM) of 0.837 and a relative viability ([21]; first compound 0.001 µM) of 0.562. The relative viability ([21]; first compound 0.003162 µM) was 0.632, the relative viability ([21]; first compound 0.01 µM) was 0.625 and the relative viability ([21]; first compound 0.03162 µM) was 0.545. For the same compound, the relative viability ([21]; first compound 0.1 µM) was 0.671, the relative viability ([22]; first compound 0.001 µM) was 0.541 and the relative viability ([22]; first compound 0.003162 µM) was 0.675. The relative viability ([22]; first compound 0.01 µM) was 0.564, the relative viability ([22]; first compound 0.03162 µM) was 0.614 and the relative viability ([22]; first compound 0.1 µM) was 0.568. It also gave a relative viability ([23]; first compound 0.001 µM) of 0.24, a relative viability ([23]; first compound 0.003162 µM) of 0.263 and a relative viability ([23]; first compound 0.01 µM) of 0.27. For the same compound, the relative viability ([23]; first compound 0.03162 µM) was 0.304 and the relative viability ([23]; first compound 0.1 µM) was 0.266.
